Experimental data published in EP4692059A1, “CATIONIC LIPID HAVING DISULFIDE BOND” (Tohoku University, priority 2023, dated 2024).

Experiments:
[1] = Particle size, PdI and zeta potential of mRNA-encapsulating LNPs by dynamic light scattering (Experimental Example 6); format: physicochemical; details: mRNA-encapsulating LNP
mouse red blood cells = assay: Hemolysis activity (membrane fusion ability) at pH 7.4 and 5.5 (Experimental Example 5); format: cell-based, ICR mice; details: physiological pH (7.4); final lipid concentration 100 µM; Fig. 1
Procedure: LNPs encapsulating mRNA that expresses luciferase (cationic lipid:DOPC:Chol:DMG-PEG2k=52.5:7.5:40:1.5 (molar ratio)) were prepared using the method described in [Experimental Example 2] 1. As cationic lipid, the cationic lipid of Comparative Example, compound 9, compound 14, compound 27, compound 33, or compound 42 was used.
The collected blood was immediately mixed with 1.0 µL of heparin solution (5000 U/5 mL). About 9 mL of PBS was added to the blood to make the total volume 10 mL. The mixture was then mixed by inversion and centrifuged (4°C, 400 g, 10 min). The supernatant containing plasma components was removed using a Pasteur pipette. About 9 mL of PBS was added to the blood cell components to make the total volume 10 mL, and the mixture was centrifuged again. A similar washing procedure was repeated 4 times to obtain mouse red blood cells.
2, 4, 6, 8, and 10 µL of mouse red blood cells were weighed and diluted with PBS containing 1 w/v% Triton-X100. The entire diluted solution was transferred to a clear 96-well plate, and the absorbance at 545 nm was measured using a plate reader. A calibration curve was created using these samples, and the point where the absorbance reached 1 was determined as the amount of blood cells to be used in the hemolysis assay. Empty LNP solution was weighed into an Eppendorf tube and diluted with malic acid-PBS buffer (pH 5.5, pH 7.4), followed by addition of mouse red blood cells. The final lipid concentration was 100 µM at pH 7.4 and 33.3 µM at pH 5.5, and the final volume of the solution was 250 µL. Each tube was shaken at 1900 rpm for 15 min. Each sample was centrifuged under centrifugation conditions (4°C, 400 g, 5 min), and 100 µL of the supernatant was transferred to a clear 96-well plate and the absorbance at 545 nm was measured. Untreated red blood cells were used as the negative control. […] The hemolysis activity of each sample was calculated using the following formula: Hemolysis activity (%) = 100×(absorbance of each sample - absorbance of negative control)/(absorbance of positive control - absorbance of negative control).

[2] = Particle size, PdI and zeta potential of mRNA-encapsulating LNPs by dynamic light scattering (Experimental Example 2); format: physicochemical; details: mRNA-encapsulating LNP containing the cationic lipid
[3] = Measurement of Liposomal pKa (TNS fluorescence, LNP without nucleic acid); details: cationic lipid:DOPC:Chol = 52.5:7.5:40 (molar ratio) + DMG-PEG2k about 1.5 mol, pH at which the relative fluorescence intensity was 50%
Procedure: Lipid nano particles (LNP) without containing nucleic acid were used for the evaluation of Liposomal pKa.
To the obtained mixture was further added DMG-PEG2k (2 mM ethanol solution) in an amount of about 1.5 mol with respect to the total amount 100 mol of cationic lipid, DOPC, and Chol, and then ethanol was added to prepare an ethanol solution of the lipid (total amount: 360 µL).
An acidic malic acid buffer (20 mM, pH 3.0) (1080 µL) containing NaCl at a final concentration of 30 mM and an ethanol solution (360 µL) of lipid were each weighed in a syringe. Using an ultra high-speed nanomedicament producing apparatus NanoAssmblr (manufactured by Precision NanoSystems), LNP was prepared under the conditions of addition rate of acidic buffer solution: 3 mL/min, addition rate of ethanol solution of lipid: 1 mL/min, and syringe holder temperature: 25°C, and collected in a 15 mL tube. […]
20 mM Citrate buffer, sodium phosphate buffer, and tris HCl buffer, each containing NaCl at a final concentration of 150 mM and adjusted to various pHs within the range of pH 3.0 to 10.0, were prepared. […] The relative fluorescence intensity was calculated as a percentage, with the maximum value of the fluorescence intensity in each LNP being 100% and the minimum value being 0%.

liver = assay: In vivo gene expression, luciferase luminescence in the liver after tail vein administration (Experimental Example 4); details: BALB/c mouse, mRNA 0.05 mg/kg
HeLa cells = assay: In vitro gene expression in HeLa cells (luciferase mRNA-encapsulating LNP, cumulative luminescence in 24 hr)
Procedure: LNP encapsulating mRNA that expresses luciferase (cationic lipid:DOPC:Chol:DMG-PEG2k = 50:10:40:1 (molar ratio)) was prepared by the method described in [Experimental Example 2], 1.
HeLa cells, which are human cervical cancer cells, were seeded in a 3.5 cm dish at 5.0×10^4 cells/2 mL/Dish 24 hours before transfection. After 24 hr, the medium was changed to a culture medium (D-MEM) containing 0.1 mM D-luciferin. The prepared mRNA-encapsulating LNP was diluted with PBS to an mRNA concentration of about 1 µg/mL. The diluted mRNA-encapsulating LNP solution (about 200 µL, mRNA: 0.2 µg) was added to a 3.5 cm dish, and set in an incubator luminometer KronosDio. The luminescence intensity of luciferase was measured for 2 min every one hour. The cumulative luciferase luminescence intensity in 24 hr was calculated from the obtained time change of expression. […] In Comparative Example, the cationic lipid described in Table 2 was used.

[4] = cationic lipid:DOPC:Chol=49:7.5:42.5:1, dispersion in TBS, dynamic light scattering (Tables 8-1, 8-2)
[5] = dispersion in PBS, dynamic light scattering (Table 5-3)

## CCCCCCCC/C=C\CCCCCCCC(=O)Oc1ccc(CC(=O)OCCC2CCN(CCSSCCN3CCC(CCOC(=O)Cc4ccc(OC(=O)CCCCCCC/C=C\CCCCCCCC)cc4)CC3)CC2)cc1 [Comparative Example, reference compound]
[1]; cationic lipid:DOPC:Chol=49:7.5:42.5:1, dispersion in TBS (Tables 8-1, 8-2)
  zeta potential (mV): -2.68 mV
[1]; [4]
  PdI: 0.075
  particle size (nm): 123.80 nm
Mouse red blood cells
  hemolysis activity: did not exhibit hemolysis activity
[2]; dispersion in PBS (Table 5-3)
  zeta potential (mV): -4.47 mV
[2]; [5]
  PdI: 0.099
  particle size (nm): 108.70 nm
[3]
  Liposomal pKa: 6.50
liver; tail vein, 4.5 hr after administration, LNP cationic lipid:DOPC:Chol:DMG-PEG2k = 52.5:7.5:40:1.5, prepared as in Experimental Example 2
  amount of luminescence (photons/sec) in liver: 1.52E+09 photons/sec
liver; liver luminescence relative to cationic lipid of Comparative Example
  relative amount of luminescence: 1.00
HeLa cells; LNP cationic lipid:DOPC:Chol:DMG-PEG2k = 50:10:40:1, mRNA 0.2 µg per dish, E+0a means 10^a
  cumulative luciferase luminescence intensity (RLU) in 24 hr: 1.85E+07 RLU
HeLa cells; cumulative intensity in 24 hr relative to cationic lipid of Comparative Example
  relative luminescence intensity: 1.00
